Series [1] is described as follows: Urinary concentration after oral administration to human subjects (HPLC). The note with it: 1 g oral. The series is classed as in vivo. The procedure: HPLC devices: PU2089 plus, AS2055 plus and RI2031 plus (series number) manufactured by JASCO Corporation; MODEL 556 manufactured by GL Sciences Inc. • Columns: MITSUBISHI MCI GEL CK08S; two columns coupled together • Oven temperature: 60° C. • Eluent: Water • Detector: Differential refractometer • Flow rate: 1 ml/minute • Injection volume: 100 μL
The determination of 1-deoxymannose was carried out using a calibration curve produced by using the 1-deoxymannose prepared as above. The determination of mannose was carried out using a calibration curve produced by using special grade mannose as a reagent.
(§1) 1 g of 1-deoxymannose was dissolved in water to prepare a 20% w/w solution as a sample for oral administration. Urine was collected from six human subjects before administration of the sample. The total amount of sample was administered orally to each of the subjects, and the total amount of urine was collected one, two, three, four, six and eight hours after the administration. The urine collected at each of the points in time was subjected to volume measurement, and then filtered through a membrane filter with a pore size of 0.2 μm, followed by measurement of urinary 1-deoxymannose concentration by HPLC analysis.
Mannose, instead of 1-deoxymannose, was orally administered, followed by collection of urine, in the same manner as in Example 1. […]

The nature of series [2]: Urine volume after oral administration. The series is classed as in vivo. To be noted: 1 g oral, human, all points in time up to eight hours. As to the method: as §1
Mannose, instead of 1-deoxymannose, was orally administered, followed by collection of urine, in the same manner as in Example 1.
In FIG. 2, the vertical axis indicates the percentage of the urine volume after administration of 1-deoxymannose in Example 1 relative to the urine volume after administration of mannose in Comparative Example 1 taken as 100%, at the respective points in time.

Series [3] in a line: Urinary recovery rate after oral administration. Type of series: in vivo. To be noted: urine; 1 g oral, human, up to eight hours after administration. The procedure:
as §1
The urinary recovery rate of 1-deoxymannose was determined by dividing the amount of recovered 1-deoxymannose, which was obtained from the collected urine volume and the urinary 1-deoxymannose concentration, by the dose. The urinary recovery rate is expressed by the following formula:
[formula] • Vn: Urine volume [ml] n hour (s) after administration • Cn: Urinary 1-deoxymannose concentration [mg/ml] n hour (s) after administration • M: Dose of 1-deoxymannose (=1000 mg)

Series [4] deals with Escherichia coli (NBRC 3301). The experiment in a line: Utilization of sugars by Escherichia coli (turbidity in M9 minimal medium). Type of series: cell-based. The note with it: 1% sugar in M9 minimal medium, 37° C., compared with mannose and glucose. The procedure:
In order to evaluate the utilization of 1-deoxymannose by Escherichia coli (NBRC 3301), the following experiment was conducted.
M9 minimal medium (obtained by adding MgSO4 and CaCl2 to Difco™ M9 Minimal Salt) containing 2 ml of 1% glucose was used. Escherichia coli (NBRC 3301) was subjected to shaking at 37° C. for 17 hours to prepare a culture solution. 10 μL of the culture solution was added to 2 ml of M9 minimal media containing 1%1-deoxymannose, 1% mannose, and 1% glucose, respectively, followed by shaking culture at 37° C. During culture, 100 μL of the culture solution was serially sampled and measured for its turbidity (600 nm) using a cell with an optical path length of 1 cm. The growth of Escherichia coli was evaluated based on increased turbidity. The results of the measurement are shown in FIG. 3, in which Example 2, Comparative Example 2, and Comparative Example 3 correspond to the culture solution containing 1-deoxymannose, the culture solution containing mannose, and the culture solution containing glucose, respectively.

For the next series, the target named is Fim H lectin (Escherichia coli, UniProt P08191). To be noted: read-out: dissociation constant (KD) against Fim H lectin (converted), cited from earlier work.
Fim H lectin, sequence (P08191 22-300): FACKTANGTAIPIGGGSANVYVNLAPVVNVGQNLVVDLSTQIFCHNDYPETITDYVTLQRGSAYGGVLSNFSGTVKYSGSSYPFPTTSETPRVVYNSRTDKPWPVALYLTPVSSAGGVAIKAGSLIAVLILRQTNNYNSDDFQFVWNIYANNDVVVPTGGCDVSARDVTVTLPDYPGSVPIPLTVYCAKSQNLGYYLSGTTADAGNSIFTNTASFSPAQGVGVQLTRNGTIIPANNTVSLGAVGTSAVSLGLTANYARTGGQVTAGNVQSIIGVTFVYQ

Structures are written as SMILES. Like-named read-outs stand apart in the source and are kept apart here.

Data on one compound can be found in US20240299429A1, “PREVENTIVE AND THERAPEUTIC AGENT FOR URINARY TRACT INFECTION CONTAINING 1-DEOXYMANNOSE” (SUNUS CO., LTD., priority 2022, published 2024).

In series [1] (average of six subjects, two hours after administration), `OC[C@H]1OC[C@@H](O)[C@@H](O)[C@@H]1O` [1-deoxymannose, 1,5-anhydro-D-mannitol] showed a highest urinary concentration of 2.12 mg/mL. Besides, in series [1] (six subjects, urine collected one to eight hours after administration, detection limit 0.1 mg/ml), the detection in urine result is listed as “detected”. The “urine volume versus mannose administration group” value in series [2] is given as “larger volume of urine”. Also, in series [3], the dose excreted is 43.3 ± 9.03%. For the same compound, the “turbidity (600 nm) of Escherichia coli culture, growth” value in series [4] was “did not have increased turbidity”. The equilibrium dissociation constant (Kd) on Fim H lectin (expressed as mass concentration) and on Fim H lectin was 1130 nM in each case.
